Laboratory results taken from paper PMC7026882, “Macrofilaricidal Benzimidazole–Benzoxaborole Hybrids as an Approach to the Treatment of River Blindness: Part 2. Ketone Linked Analogs” (ACS Infectious Diseases, 2019).
Read-outs that look alike come from different tables or passages of the source.

Key:
O. volvulus = O. volvulus molting assay; type: cell-based; conditions: Onchocerca volvulus; for IC50: molting assay
Excerpt: As summarized in Table 1, we were encouraged to find that the initial ketone analogs prepared, namely, 15 (6-linked) and 20 (5-linked), were quite active in an O. volvulus molting assay we used as a primary indicator of antiparasitic activity[30],[31] and were only weakly active in a G2/M arrest,[32] indicative of the interaction with mammalian tubulin. As described above, our hypothesis was to reduce Pgp efflux liability through elimination of the hydrogen-bond donor associated with the N–H of the amide linker, as this has been shown in the literature to be a contributor to recognition by Pgp.[33],[34] […] We were disappointed to find that the 5-linked analog 22 was poorly selective and the 6-linked analog 23 was only weakly active. […]
(§1) in comparison to the number of control larvae that had successfully molted. IC50 values were calculated using GraphPad Prism v6.0 (http://www.graphpad.com). See Bullman et al., PLoS
(§2) Negl. Trop. Dis., 2015, 9, e3534 for further details.
(§3) Adult Brugia malayi in vivo model procedure.
(§4) Gerbils (Meriones unguiculatus) were infected by transplantation of 10 male and 10 female adult Brugia malayi into the peritoneal cavity. Gerbils were acclimated for 7 days prior to treatment. Animals were dosed based on their body weight prior to each dosing. Animals were administered their doses at the same time each day and receive standard rodent laboratory diet and water ad libitum. Gerbils were humanely euthanized at the conclusion of each study.
(§5) Peritoneal counts of male and female adult B. malayi and visual condition of the peritoneum […]
(§6) L3 Brugia pahangi in vivo model procedure.
(§7) Male gerbils (Meriones unguiculatus) approximately 6 weeks of age (50-60 g) were purchased from Charles Rivers (USA, Kingston K62 Gerbils) and infected by intraperitoneal injection with 200 Brugia pahangi third-stage larvae (L3) per animal (Filariatech, Inc., Athens, GA). Gerbils were housed with no more than 5 animals per cage and maintained 9 months prior to treatment. All gerbils were dosed in accordance with their body weight determined prior to each dosing. Animals were administered their doses at the same time each day and are allowed to feed and drink ad libitum. Gerbils were euthanized following approved institutional protocols. Euthanized animals were weighed and examined for external and visceral pathologies. The adult Brugia worms were recovered by opening the body cavity and washing the peritoneal cavity with 100 mL of phosphate buffered saline. Male and female worms were counted using a dissecting microscope.
(§8) Litomosoides sigmodontis in vivo model procedure. 2
(§9) All animal experiments with L. sigmodontis were conducted at the Institute for Medical Microbiology, Immunology and Parasitology (IMMIP), University Hospital of Bonn, in accordance to the European Union animal welfare guidelines. All protocols were approved by the local authorities (Landesamt für Natur, Umwelt und Verbraucherschutz, Cologne, Germany (AZ 84- […]
(§10) Janvier (Saint-Berthevin, France) and were housed at the animal facility of the IMMIP in individually ventilated cages on a 12h light/dark cycle with food and water ad libidum. Mice were infected at 6-8 weeks of age via exposure to the natural mite vector Ornithonyssus bacoti

[1] = test system: mammalian tubulin (G2/M arrest); experiment: G2/M arrest assay, indicative of interaction with mammalian tubulin; type: cell-based
Excerpt: (§11) As summarized in Table 1, we were encouraged to find that the initial ketone analogs prepared, namely, 15 (6-linked) and 20 (5-linked), were quite active in an O. volvulus molting assay we used as a primary indicator of antiparasitic activity[30],[31] and were only weakly active in a G2/M arrest,[32] indicative of the interaction with mammalian tubulin. As described above, our hypothesis was to reduce Pgp efflux liability through elimination of the hydrogen-bond donor associated with the N–H of the amide linker, as this has been shown in the literature to be a contributor to recognition by Pgp.[33],[34] […] We were disappointed to find that the 5-linked analog 22 was poorly selective and the 6-linked analog 23 was only weakly active.

P-gp (MDR1) = experiment: MDCK-MDR1 cell monolayer permeability assay; type: in vitro ADME; conditions: dog
Excerpt: as §11

[2] = Metabolic stability (Clint) in gerbil microsomes; type: in vitro ADME
Excerpt: as §11

[3] = Metabolic stability (Clint) in human microsomes; type: in vitro ADME
Excerpt: as §11

[4] = Pharmacokinetics in Mongolian gerbils; type: in vivo; conditions: blood, Mongolian gerbils; for AUC(0-t): read-out: AUC0–24; for Cmax: read-out: Cmax; for bioavailability: po, read-out: bioavailability (%F)
Excerpt: In addition, the concentrations achieved at these doses were well in excess of the O. volvulus IC50, a requirement for in vivo activity that we had hypothesized on the basis of earlier work in the amide-linked series.

Brugia pahangi = experiment: In vivo efficacy in the L3 Brugia pahangi gerbil model
Method: For our in vivo model, gerbils were infected by injecting B. pahangi third-stage larvae (L3) that were subsequently allowed to develop to adult worms over several months. Once stable infections had been established, 21 was administered as a suspension via once-daily oral gavage at a dose of 100 mg/kg for 7, 14, or 28 days. All animals were maintained until day 63 after the start of dosing, at which time adult worms were recovered from the peritoneal cavity and microfilariae were quantified in blood samples. Flubendazole (5 mg/kg, SC × 5 days) was included as a positive control in this study. […]
as §1, §2, §3, §4, §5, §6, §7, §8, §9, §10

[5] = test system: P-glycoprotein transporter (Pgp); design: method as in PMID 30650084; conditions: limits oral bioavailability; cited from earlier work
[6] = test system: LF (lymphatic filariasis); design: method as in PMID 30650084; conditions: by route of administration; cited from earlier work
[7] = SC, 10 mg/kg, 5 days, QD, positive control

| SMILES | IC50 (O. volvulus) [nM] | IC50 [1] [nM] | Papp A→B (P-gp (MDR1)) [×10⁻⁶ cm/s] | microsomal CLint [2] [µL/min/mg] | microsomal CLint [3] [µL/min/mg] | also measured |
| --- | --- | --- | --- | --- | --- | --- |
| COC(=O)Nc1nc2cc(C(=O)c3ccc4c(c3)C(C)(C)OB4O)ccc2[nH]1 [compound 22] | 10 | 280 | 26.2 |  |  |  |
| COC(=O)Nc1nc2ccc(C(=O)c3ccc(F)c4c3B(O)OC4)cc2[nH]1 [compound 26] | 20 | 30300 | 21.7 | 11.6 | 11.1 | AUC(0-t) ([4]; 2 mg/kg, dose 2, IV): 18600 ng·h/mL; Cmax ([4]; 2 mg/kg, dose 2, IV): 10900 ng/mL; AUC(0-t) ([4]; 10 mg/kg, dose 10, PO): 23500 ng·h/mL; Cmax ([4]; 10 mg/kg, dose 10, PO): 1690 ng/mL; bioavailability ([4]; 10 mg/kg, dose 10, PO): 24% |
| COC(=O)Nc1nc2cc(C(=O)c3ccc(F)cc3)ccc2[nH]1 [compound 3, flubendazole, reference compound] | 4 | 670 |  | < 4 |  | Papp A→B (P-gp (MDR1); A-B, read-out: MDCK-MDR1 Papp (A-B)): 15.6 ×10⁻⁶ cm/s; Number of Worms Recovered, Avg Female Worms (Brugia pahangi; [7]): 0.0; Number of Worms Recovered, Avg Male Worms (Brugia pahangi; [7]): 0.0; worms recovered from positive control group (Brugia pahangi; given SC): no worms recovered |
| COC(=O)Nc1nc2cc(C(=O)c3ccc4c(c3)COB4O)ccc2[nH]1 [compound 20] | 112 | 9800 | 11.7 | 11.7 |  | AUC(0-t) ([4]; 2 mg/kg, dose 2, IV): 1160 ng·h/mL; Cmax ([4]; 2 mg/kg, dose 2, IV): 2000 ng/mL; AUC(0-t) ([4]; 10 mg/kg, dose 10, PO): 990 ng·h/mL; Cmax ([4]; 10 mg/kg, dose 10, PO): 480 ng/mL; bioavailability ([4]; 10 mg/kg, dose 10, PO): 17% |
| COC(=O)Nc1nc2cc(C(=O)c3cccc4c3B(O)O[C@H]4C)ccc2[nH]1 (single isomer, unassigned) [compound 30] | 110 | 12200 | 34.3 | < 4 | < 4 | AUC(0-t) ([4]; 2 mg/kg, dose 2, IV): 14600 ng·h/mL; Cmax ([4]; 2 mg/kg, dose 2, IV): 7580 ng/mL; AUC(0-t) ([4]; 10 mg/kg, dose 10, PO): 141000 ng·h/mL; Cmax ([4]; 10 mg/kg, dose 10, PO): 14000 ng/mL; bioavailability ([4]; 10 mg/kg, dose 10, PO): ~100% |
| COC(=O)Nc1nc2cc(C(=O)CCCc3ccc4c(c3)B(O)OC4(C)C)ccc2[nH]1 [compound 33] |  | 20 |  |  |  |  |
| COC(=O)Nc1nc2cc(C(=O)c3cccc4c3COB4O)ccc2[nH]1 [compound 19] | 1590 | > 100000 | 28.3 |  | 5.56 |  |
| COC(=O)Nc1nc2cc(C(=O)c3ccc4c(c3)B(O)O[C@@H]4C)ccc2[nH]1 (single isomer, unassigned) [compound 24] | > 1000 | > 100000 |  |  |  | inhibition at 1 µM (O. volvulus): 2% |
| COC(=O)Nc1nc2cc(C(=O)c3ccc4c(c3)B(O)OC4)ccc2[nH]1 [compound 15] | 118 | 12300 | 6 | 8.25 |  | AUC(0-t) ([4]; 2 mg/kg, dose 2, IV): 880 ng·h/mL; Cmax ([4]; 2 mg/kg, dose 2, IV): 2260 ng/mL; AUC(0-t) ([4]; 10 mg/kg, dose 10, PO): 790 ng·h/mL; Cmax ([4]; 10 mg/kg, dose 10, PO): 270 ng/mL; bioavailability ([4]; 10 mg/kg, dose 10, PO): 18% |
| COC(=O)Nc1nc2cc(C(=O)c3cccc4c3B(O)O[C@@H]4C)ccc2[nH]1 (single isomer, unassigned) [compound 29] | 100 | 5600 | 57.2 | < 4 | < 4 |  |
| COC(=O)Nc1nc2ccc(C(=O)c3ccc(Cl)c4c3B(O)OC4)cc2[nH]1 [compound 31] | 30 | 11600 | 28 | < 4 | < 4 |  |
| COC(=O)Nc1nc2ccc(C(=O)c3cc(F)cc4c3B(O)OC4)cc2[nH]1 [compound 27] | 270 | 22000 | 32 | < 4 | < 4 |  |
| COC(=O)Nc1nc2cc(C(=O)CCc3ccc4c(c3)B(O)OC4(C)C)ccc2[nH]1 [compound 32] | 290 | 460 | 16 | 26.7 | 7.63 |  |
| COC(=O)Nc1nc2ccc(C(=O)c3c(F)ccc4c3B(O)OC4)cc2[nH]1 [compound 28] | 1310 | > 100000 |  |  |  |  |
| COC(=O)Nc1nc2cc(C(=O)NCc3ccc4c(c3)B(O)OC4(C)C)ccc2[nH]1 [compound 4] |  |  |  |  |  | efflux via P-glycoprotein transporter (Pgp) [5]: subject to efflux; activity in in vivo models of LF [6]: only active in in vivo models of LF following subcutaneous administration |
| COC(=O)Nc1nc2ccc(C(=O)c3ccc4c(c3)B(O)OC4(C)C)cc2[nH]1 [compound 23] | > 1000 | > 100000 | 20.7 |  |  | inhibition at 1 µM (O. volvulus): 0% |
| COC(=O)Nc1nc2cc(C(=O)c3ccc4c(c3)B(O)O[C@H]4C)ccc2[nH]1 (single isomer, unassigned) [compound 25] | 40 | > 100000 | 15.5 | < 4 | < 4 |  |
